Data on ten molecules can be found in US20230203098A1, “HUMAN TRANSFERRIN RECEPTOR BINDING PEPTIDE” (priority 2020, published 2023).

What is called Kd is a measure of binding affinity in units of concentration.

Like-named read-outs stand apart in the source and are kept apart here. Where a SMILES comes first, the peptide text is derived from it. Bridges are numbered along the chain shown (N, C = ends). [ ]: non-standard residue; d: D form. The star is where a group is joined. X2 = O=C(O)c1cc(C(=O)*)ccc1-c1c2ccc(=O)cc-2oc2cc(O)ccc12; PEG12 = NCCOCCOCCOCCOCCOCCOCCOCCOCCOCCOCCOCCOCCC(=O)O; NMePhe(3-Cl) = CN[C@@H](Cc1cccc(Cl)c1)C(=O)O; NMeW = CN[C@@H](Cc1c[nH]c2ccccc12)C(=O)O; NMeY = CN[C@@H](Cc1ccc(O)cc1)C(=O)O; NMeF = CN[C@@H](Cc1ccccc1)C(=O)O; Ahp(2) = CCCCC[C@H](N)C(=O)O; Chg = N[C@H](C(=O)O)C1CCCCC1; PEG4 = NCCOCCOCCOCCOCCC(=O)O; Nva = CCC[C@H](N)C(=O)O

This experiment has as its target transferrin receptor (hTfR) (Homo sapiens, UniProt P02786). Kind of experiment: Intermolecular interaction evaluation test between transferrin receptor (hTfR) and peptide by surface plasmon resonance (SPR). It is filed as binding. In short, it runs like this:
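hTfR captured on Ni-NTA chip then amine-coupled; peptides run single-cycle kinetics at 5–100 nM in 10 mM HEPES pH 8.0, 150 mM NaCl, 0.05% Tween 20, 0.1% BSA, 1.0% DMSO. KD from least-squares curve fitting of sensorgrams.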

[1] abbreviates: SPR, peptides, linker-added peptides and FITC conjugates, Patent ID 203-230, read-out: KD.
[2] abbreviates: surface plasmon resonance, hTfR, read-out: KD value for hTfR by SPR (class symbol).
Where [3] appears, read: binding to hTfR by SPR, Table 2 peptides, read-out: KD value (SPR) class.

Chain of transferrin receptor (hTfR) (P02786 whole entry): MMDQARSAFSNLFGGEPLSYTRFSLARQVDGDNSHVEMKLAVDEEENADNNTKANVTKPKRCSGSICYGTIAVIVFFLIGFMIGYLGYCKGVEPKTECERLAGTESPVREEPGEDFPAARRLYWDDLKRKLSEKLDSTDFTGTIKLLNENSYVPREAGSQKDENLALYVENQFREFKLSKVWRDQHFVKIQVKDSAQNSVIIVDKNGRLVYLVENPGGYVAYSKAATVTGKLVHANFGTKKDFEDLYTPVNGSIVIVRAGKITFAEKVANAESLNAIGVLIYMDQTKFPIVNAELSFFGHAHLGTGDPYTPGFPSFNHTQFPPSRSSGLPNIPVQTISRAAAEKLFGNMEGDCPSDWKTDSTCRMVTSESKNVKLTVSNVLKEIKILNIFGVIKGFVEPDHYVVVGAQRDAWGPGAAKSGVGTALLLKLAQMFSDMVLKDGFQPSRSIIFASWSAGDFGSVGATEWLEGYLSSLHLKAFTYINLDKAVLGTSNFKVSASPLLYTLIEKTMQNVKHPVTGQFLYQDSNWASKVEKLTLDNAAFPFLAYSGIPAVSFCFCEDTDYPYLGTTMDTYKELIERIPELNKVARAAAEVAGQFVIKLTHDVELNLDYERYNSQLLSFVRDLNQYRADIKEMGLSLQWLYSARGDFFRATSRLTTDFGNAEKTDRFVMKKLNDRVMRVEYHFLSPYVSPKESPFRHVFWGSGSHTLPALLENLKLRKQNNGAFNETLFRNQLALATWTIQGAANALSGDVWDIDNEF

For the molecule `CC[C@H](C)[C@@H]1NC(=O)[C@H](Cc2ccc(O)cc2)NC(=O)[C@H](Cc2ccc(O)cc2)NC(=O)[C@H](CC(N)=O)NC(=O)[C@H](Cc2c[nH]c3ccccc23)NC(=O)[C@H](C(C)C)NC(=O)[C@H](Cc2ccccc2)NC(=O)[C@H](C(C)C)NC(=O)[C@H](C)NC(=O)CSC[C@@H](C(=O)NCCOCCOCCOCCOCCOCCOCCOCCOCCOCCOCCOCCOCCC(=O)N[C@@H](CCCCNC(=O)c2ccc(-c3c4ccc(=O)cc-4oc4cc(O)ccc34)c(C(=O)O)c2)C(N)=O)NC(=O)[C@H](Cc2c[nH]c3ccccc23)N(C)C(=O)[C@H](CCCNC(=N)N)NC(=O)[C@@H]2CCCN2C(=O)[C@H](C(C)C)NC1=O` [compound 210] ({CH2CO}-AVFVWNYYIVPR[NMeW]C[PEG12]K(X2)-NH2; thioether N-14), the Kd under setting [1] is 1 to 100 nM.

With `CC[C@H](C)[C@@H]1NC(=O)[C@H](Cc2ccc(OC)cc2)NC(=O)[C@H](Cc2ccc(O)cc2)NC(=O)[C@H](CC(N)=O)NC(=O)[C@H](Cc2c[nH]c3ccccc23)N(C)C(=O)[C@H](C(C)C)NC(=O)[C@H](Cc2cccc(Cl)c2)N(C)C(=O)[C@H](CCC(=O)O)NC(=O)[C@H](C)NC(=O)CSC[C@@H](C(N)=O)NC(=O)[C@H](Cc2ccc(O)cc2)N(C)C(=O)[C@H](Cc2ccccc2)NC(=O)[C@H](CCCCN)NC(=O)[C@H](C)NC(=O)[C@H]([C@@H](C)CC)NC1=O` [compound 225] ({CH2CO}-AE[NMePhe(3-Cl)]V[NMeW]NYY(Me)IIAKF[NMeY]C-NH2; thioether N-15), the dissociation constant (Kd) under setting [1] was in the range of 1 to 100 nM.

`CC[C@H](C)[C@@H]1NC(=O)[C@H](Cc2ccc(OC)cc2)NC(=O)[C@H](Cc2ccc(O)cc2)NC(=O)[C@H](CC(N)=O)NC(=O)[C@H](Cc2c[nH]c3ccccc23)N(C)C(=O)[C@H](C(C)C)NC(=O)[C@H](Cc2cccc(Cl)c2)N(C)C(=O)[C@H](C(C)C)NC(=O)[C@H](C)NC(=O)CSC[C@@H](C(N)=O)NC(=O)[C@H](Cc2ccc(O)cc2)N(C)C(=O)[C@H](Cc2ccccc2)NC(=O)[C@@H](CCCNC(=N)N)NC(=O)C2(CCN(C)CC2)NC(=O)[C@H]([C@@H](C)CC)NC1=O` [compound 364]: the Kd under setting [2] lay within 1 to 100 nM.

As for `CC[C@H](C)[C@@H]1NC(=O)[C@H](Cc2ccc(OC)cc2)NC(=O)[C@H](Cc2ccc(O)cc2)NC(=O)[C@H](CC(N)=O)NC(=O)[C@H](Cc2c[nH]c3ccccc23)N(C)C(=O)[C@H](C(C)C)NC(=O)[C@H](Cc2cccc(Cl)c2)N(C)C(=O)[C@H](CCC(=O)O)NC(=O)[C@H](C)NC(=O)CSC[C@@H](C(N)=O)NC(=O)[C@H](CO)NC(=O)[C@H]([C@@H](C)CC)NC1=O` [compound 203] ({CH2CO}-AE[NMePhe(3-Cl)]V[NMeW]NYY(Me)IISC-NH2; thioether N-12), under setting [1], the Kd lay within 1 to 100 nM.

Turning to `CC[C@H](C)[C@@H]1NC(=O)[C@H](Cc2ccc(O)cc2)NC(=O)[C@H](Cc2ccc(O)cc2)NC(=O)[C@H](CC(N)=O)NC(=O)[C@H](Cc2c[nH]c3ccccc23)NC(=O)[C@H](C(C)C)NC(=O)[C@H](Cc2ccccc2)N(C)C(=O)[C@H](C(C)C)NC(=O)[C@H](C)NC(=O)CSC[C@@H](C(=O)NCC(=O)NCC(=O)NCC(=O)N[C@@H](CO)C(=O)N[C@@H](CO)C(=O)N[C@@H](CCCCNC(=O)C2CCC(CN3C(=O)C=CC3=O)CC2)C(N)=O)NC(=O)[C@H](Cc2ccc(O)cc2)N(C)C(=O)[C@H](Cc2ccc(O)cc2)NC(=O)[C@H](CCCNC(=N)N)NC(=O)[C@H](CCCNC(=N)N)NC(=O)[C@H]([C@@H](C)CC)NC1=O` (stereo partly shown) [compound 187], the Kd (hTfR binding by SPR, hTfR No. 894 variant peptides, linker-added peptides and payload conjugates (Table 2), read-out: KD value obtained from the SPR measurement) was 1 to 100 nM.

Consider `CC[C@H](C)[C@@H]1NC(=O)[C@H](Cc2ccc(OCCN)cc2)NC(=O)[C@H](Cc2ccc(O)cc2)NC(=O)[C@H](CC(N)=O)NC(=O)[C@H](Cc2c[nH]c3ccccc23)NC(=O)[C@H](C(C)C)NC(=O)[C@H](Cc2ccccc2)N(C)C(=O)[C@H](C(C)C)NC(=O)[C@H](C)NC(=O)CSC[C@@H](C(N)=O)NC(=O)[C@H](Cc2ccc(O)cc2)N(C)C(=O)[C@H](Cc2ccccc2)NC(=O)[C@H](CCCNC(=N)N)NC(=O)[C@H](CCCNC(=N)N)NC(=O)[C@H]([C@@H](C)CC)NC1=O` [compound 522], for which the Kd (SPR, hTfR, class symbols A-D, read-out: KD (column without head, continuation of the table series)) was in the range of 100 to 1000 nM.

On to `CCC[C@@H]1NC(=O)[C@H](C)NC(=O)CSC[C@@H](C(=O)NCCOCCOCCOCCOCCC(N)=O)NC(=O)[C@H](Cc2ccc(O)cc2)N(C)C(=O)[C@H](Cc2ccccc2)NC(=O)[C@@H](CCCNC(=N)N)NC(=O)[C@H](CCCNC(=N)N)NC(=O)[C@H]([C@@H](C)CC)NC(=O)[C@H]([C@@H](C)CC)NC(=O)[C@H](Cc2ccc(OC)cc2)NC(=O)[C@H](Cc2ccc(O)cc2)NC(=O)[C@H](CC(N)=O)NC(=O)[C@H](Cc2c[nH]c3ccccc23)N(C)C(=O)[C@H](C(C)C)NC(=O)[C@H](Cc2cccc(Cl)c2)N(C)C1=O` [compound 244] ({CH2CO}-A[Nva][NMePhe(3-Cl)]V[NMeW]NYY(Me)IIR[dR]F[NMeY]C[PEG4]-NH2; thioether N-15), for which the Kd under setting [3] is 1 to 100 nM.

Take `CC[C@H](C)[C@@H]1NC(=O)[C@H](Cc2ccc(O)cc2)NC(=O)[C@H](Cc2ccc(O)cc2)NC(=O)[C@H](CC(N)=O)NC(=O)[C@H](Cc2c[nH]c3ccccc23)NC(=O)[C@H](C(C)C)NC(=O)[C@H](Cc2ccccc2)NC(=O)[C@H](C(C)C)NC(=O)[C@H](C)NC(=O)CSC[C@@H](C(=O)NCCOCCOCCOCCOCCC(=O)N[C@@H](CNC(=O)c2ccc(-c3c4ccc(=O)cc-4oc4cc(O)ccc34)c(C(=O)O)c2)C(N)=O)NC(=O)[C@H](Cc2ccc(O)cc2)N(C)C(=O)[C@H](Cc2ccc(O)cc2)NC(=O)[C@H](CCCNC(=N)N)NC(=O)[C@H](CCCNC(=N)N)N(C)C(=O)[C@H]([C@@H](C)CC)NC1=O` [compound 164]: the Kd (SPR, linker and payload (FITC, VivoTag) conjugates, read-out: KD) lay within 1 to 100 nM.

As for `CCCCC[C@@H]1NC(=O)[C@H]([C@@H](C)CC)NC(=O)[C@H]([C@@H](C)CC)NC(=O)[C@H](Cc2ccc(OC)cc2)NC(=O)[C@H](Cc2ccc(O)cc2)NC(=O)[C@H](CC(N)=O)NC(=O)[C@H](Cc2c[nH]c3ccccc23)N(C)C(=O)[C@H](C(C)C)NC(=O)[C@H](Cc2cccc(Cl)c2)N(C)C(=O)[C@H](C(C)C)NC(=O)[C@H](C)NC(=O)CSC[C@@H](C(=O)NCCOCCOCCOCCOCCC(N)=O)NC(=O)[C@H](Cc2ccc(O)cc2)N(C)C(=O)[C@H](Cc2ccccc2)NC(=O)[C@@H](CCCNC(=N)N)NC1=O` [compound 362] ({CH2CO}-AV[NMePhe(3-Cl)]V[NMeW]NYY(Me)II[Ahp(2)][dR]F[NMeY]C[PEG4]-NH2; thioether N-15), the dissociation constant Kd under setting [2] lay within 1 to 100 nM.

Regarding `CC[C@H](C)[C@@H]1NC(=O)[C@H](C2CCCCC2)NC(=O)[C@H](Cc2ccc(O)cc2)NC(=O)[C@H](Cc2ccc(O)cc2)NC(=O)[C@H](CC(N)=O)NC(=O)[C@H](Cc2c[nH]c3ccccc23)NC(=O)[C@H](C2CCCCC2)NC(=O)[C@H](Cc2ccccc2)N(C)C(=O)[C@H](C(C)C)NC(=O)[C@H](C)NC(=O)CSC[C@@H](C(N)=O)NC(=O)[C@H](Cc2ccc(O)cc2)N(C)C(=O)[C@H](Cc2ccc(O)cc2)NC(=O)[C@H](CCCNC(=N)N)NC(=O)[C@H](CCCNC(=N)N)NC1=O` [compound 267] ({CH2CO}-AV[NMeF][Chg]WNYY[Chg]IRRY[NMeY]C-NH2; thioether N-15), the Kd under setting [3] lay in the range of 100 to 1000 nM.
